Ends that are not written are not given here.
Experiments:
[1] = 14-day repeat dose IV toxicity study with toxicokinetic evaluation on Day 1 and Day 14 in rats; format: in vivo, Wistar rats; settings: rat, in vivo, iv, 10 mg/kg/day, IV 10 mg/kg/day
Protocol: (§1) Peptide 1 in blood samples collected from animals used in the studies (rat and dog) has been measured by an LC-MS/MS method. Analysis of samples collected in the pharmacokinetic study in rats was performed prior to validation of the method. Prior to analysis of samples from the GLP toxicology studies, the method was validated according to GLP to ensure that it is selective, accurate, reproducible, and able to produce reliable results. The method was validated over the range from 0.075 to 25 μg/mL Peptide 1.
In the 14-day intravenous toxicity study in Wistar rats (see study description below), samples were collected from 3 male and 3 female animals per group dosed at 0 (Control), 1, 3 or 10 mg/kg/day at 2, 5, 10, 20 and 40 minutes after dosing on Days 1 and 14. Samples were analysed for levels of Peptide 1.

[2] = PK after single intravenous injection of Peptide 1 in male rats; design: species or system male Wistar (CRL: WI(Han)) rats; settings: rat, in vivo; for clearance / half-life / Vd: iv
Protocol: as §1
The objective of the study was to assess the pharmacokinetic profile of Peptide 1 when administered once by intravenous injection to male Wistar (CRL: WI(Han)) rats at 0.1, 1.0 and 10.0 mg/kg. The number of rats per group was respectively 6, 6 and 8. Blood samples were collected from 3 animals per group at 2, 5, 10, 20, 40 and 60 minutes after dosing; for the animals receiving 10.0 mg/kg, additional samples were taken from 2 animals at 90 and 120 minutes after dosing. The pharmacokinetics were characterised using mean plasma concentration vs. time data. The pharmacokinetic parameters were estimated using Phoenix WinNonlin Version 6.3 pharmacokinetic software.
[…] 26 plasma samples (samples in Group 1 (0.1 mg/kg) obtained 2 minutes post dosing, in Group 2 (1 mg/kg) 2 to 10 minutes post dosing and in Group 3 (10 mg/kg) 2 to 40 minutes post dosing) had concentrations of Peptide 1 above the upper limit of quantification for the bioanalytical method. As a consequence, plasma concentration of Peptide 1 was extrapolated. Plasma samples obtained 60 minutes post dosing in Group 1 had plasma concentration of Peptide 1 below the limit of quantification.

[3] = single IV 0.1 mg/kg, initial elimination phase
[4] = single IV 1.0 mg/kg, initial elimination phase
[5] = single IV 10 mg/kg, initial elimination phase

AMVSEFLKQAWFIENEEQEYVQTLKSSKGGPGSAVSPYPTFNPSSDV-NH2 [Peptide 1]
AUC(0-inf) ([1]; female, Day 1, read-out: AUC0-∞ (converted)): 9570 ng·h/mL | half-life ([1]; female, Day 1, read-out: T1/2): 7.16 min | Vd ([1]; female, Day 1, read-out: Vz): 0.18 L/kg | C0 ([1]; female, Day 14): 138 µg/mL | clearance ([1]; female, Day 14): 16.5 mL/min/kg | AUC(0-inf) ([1]; female, Day 14, read-out: AUC0-∞ (converted)): 10100 ng·h/mL | half-life ([1]; female, Day 14, read-out: T1/2): 7.04 min | Vd ([1]; female, Day 14, read-out: Vz): 0.168 L/kg | C0 ([1]; male, Day 1): 104 µg/mL | clearance ([1]; male, Day 1): 18.1 mL/min/kg | AUC(0-inf) ([1]; male, Day 1, read-out: AUC0-∞ (converted)): 9200 ng·h/mL | half-life ([1]; male, Day 1, read-out: T1/2): 7.8 min | Vd ([1]; male, Day 1, read-out: Vz): 0.204 L/kg | C0 ([1]; male, Day 14): 92.3 µg/mL | clearance ([1]; male, Day 14): 18.2 mL/min/kg | AUC(0-inf) ([1]; male, Day 14, read-out: AUC0-∞ (converted)): 9130 ng·h/mL | half-life ([1]; male, Day 14, read-out: T1/2): 7.31 min | Vd ([1]; male, Day 14, read-out: Vz): 0.192 L/kg | clearance ([2]; 0.1 mg/kg, single IV 0.1 mg/kg, initial elimination phase, read-out: CL): 10 mL/min/kg | half-life ([2]; 0.1 mg/kg, single IV 0.1 mg/kg, initial elimination phase, read-out: T½): 3.49 min | Vd ([2]; 0.1 mg/kg, single IV 0.1 mg/kg, initial elimination phase, read-out: Vz): 0.0505 L/kg | clearance ([2]; 0.1 mg/kg, single IV 0.1 mg/kg, terminal elimination phase, read-out: CL): 9.66 mL/min/kg | half-life ([2]; 0.1 mg/kg, single IV 0.1 mg/kg, terminal elimination phase, read-out: T½): 18.8 min | Vd ([2]; 0.1 mg/kg, single IV 0.1 mg/kg, terminal elimination phase, read-out: Vz): 0.261 L/kg | clearance ([2]; 1 mg/kg, single IV 1.0 mg/kg, initial elimination phase, read-out: CL): 8.08 mL/min/kg | half-life ([2]; 1 mg/kg, single IV 1.0 mg/kg, initial elimination phase, read-out: T½): 3.34 min | Vd ([2]; 1 mg/kg, single IV 1.0 mg/kg, initial elimination phase, read-out: Vz): 0.0389 L/kg | clearance ([2]; 1 mg/kg, single IV 1.0 mg/kg, terminal elimination phase, read-out: CL): 8.05 mL/min/kg | half-life ([2]; 1 mg/kg, single IV 1.0 mg/kg, terminal elimination phase, read-out: T½): 10 min | Vd ([2]; 1 mg/kg, single IV 1.0 mg/kg, terminal elimination phase, read-out: Vz): 0.116 L/kg | clearance ([2]; 10 mg/kg, single IV 10 mg/kg, initial elimination phase, read-out: CL): 11.1 mL/min/kg | half-life ([2]; 10 mg/kg, single IV 10 mg/kg, initial elimination phase, read-out: T½): 7.64 min | Vd ([2]; 10 mg/kg, single IV 10 mg/kg, initial elimination phase, read-out: Vz): 0.122 L/kg | clearance ([2]; 10 mg/kg, single IV 10 mg/kg, terminal elimination phase, read-out: CL): 11.1 mL/min/kg | half-life ([2]; 10 mg/kg, single IV 10 mg/kg, terminal elimination phase, read-out: T½): 10.2 min | Vd ([2]; 10 mg/kg, single IV 10 mg/kg, terminal elimination phase, read-out: Vz): 0.162 L/kg | clearance ([2]; single IV, both phases, range over 0.1-10 mg/kg, read-out: clearance): 8 to 11 mL/min/kg | half-life ([2]; single IV, initial phase, range over 0.1-10 mg/kg, read-out: half-life): 3 to 8 min | Vd ([2]; single IV, initial phase, range over 0.1-10 mg/kg, read-out: volume of distribution): 0.039 to 0.122 L/kg | half-life ([2]; single IV, terminal elimination phase, range over 0.1-10 mg/kg, read-out: half-life): 10 to 19 min | Vd ([2]; single IV, terminal phase, range over 0.1-10 mg/kg, read-out: volume of distribution): 0.116 to 0.261 L/kg | AUC(0-t) [2, 3]: 165 ng·h/mL | C0 [2, 3]: 1.79 µg/mL | AUC(0-inf) ([2]; single IV 0.1 mg/kg, terminal elimination phase): 173 ng·h/mL | AUC(0-t) [2, 4]: 2070 ng·h/mL | C0 [2, 4]: 32.5 µg/mL | AUC(0-inf) ([2]; single IV 1.0 mg/kg, terminal elimination phase): 2070 ng·h/mL | AUC(0-t) [2, 5]: 14800 ng·h/mL | C0 [2, 5]: 68.9 µg/mL | AUC(0-inf) ([2]; single IV 10 mg/kg, terminal elimination phase): 15000 ng·h/mL

Reference: patent publication US20250345392A1, “ANNEXIN A1 LIQUID PHARMACEUTICAL COMPOSITION” (ResoTher Pharma A/S, priority 2022, published 2025)
